In brackets after ≈: the same amount, converted by molar mass.
Tests used:
[1] = test system: EMRSA15 Staphylococcus aureus (MRSA) - SSCmec type 4; settings: EMRSA15 - SSCmec type 4
[2] = test system: Enterococcus faecalis high-level gentamicin-resistant clinical isolate
[3] = test system: EMRSA16 Staphylococcus aureus (MRSA) - SSCmec type 2; settings: EMRSA16 - SSCmec type 2
[4] = test system: Staphylococcus aureus ATCC 25923 - antibiotic-susceptible control strain
[5] = test system: Staphylococcus aureus ATCC 29213 - antibiotic-susceptible control strain; settings: ATCC 29213
[6] = test system: Trichophyton interdigitale - G.R. Micro collection
[7] = test system: MU50 Staphylococcus aureus (MRSA) - VISA type strain
[8] = test system: Listeria monocytogenes - antibiotic-susceptible clinical isolate
[9] = test system: Corynebacterium jeikeium - antibiotic-susceptible clinical isolate
[10] = test system: Candida parapsilosis ATCC90018 - reference strain
[11] = test system: Enterococcus faecalis vancomycin-resistant (VanA) clinical isolate
[12] = test system: Streptococcus pyogenes - Macrolide (MLS) resistant clinical isolate
[13] = test system: Staphylococcus aureus - multi-drug-resistant clinical isolate
[14] = test system: Morganella morganii - multi-drug resistant clinical isolate
[15] = test system: EMRSA1 Staphylococcus aureus (MRSA) - SSCmec type 3; settings: EMRSA1 - SSCmec type 3
[16] = test system: Enterobacter sp - antibiotic-susceptible clinical isolate
[17] = test system: Candida tropicalis ATCC750 - reference strain
[18] = test system: Pseudomonas aeruginosa ATCC27853 - antibiotic-susceptible type strain; settings: ATCC27853
[19] = test system: Enterococcus gallinarum vancomycin-resistant (VanC) clinical isolate
[20] = test system: Group G Streptococcus - macrolide-resistant clinical isolate
[21] = test system: Staphylococcus aureus - methicillin-resistant clinical isolate
[22] = test system: EMRSA3 Staphylococcus aureus (MRSA) - SSCmec type 1; settings: EMRSA3 - SSCmec type 1
[23] = test system: Staphylococcus epidermidis antibiotic susceptible clinical isolate
[24] = test system: Propionibacterium acnes- antibiotic-susceptible clinical isolate; test: MIC microbroth dilution (CLSI); type: cell-based; settings: P. acnes antibiotic-susceptible
Procedure: Supplemented Brucella broth (SBB) was used for the anaerobic strains with an inoculum of approximately 10^6 CFU/mL. SBB is a broth consisting of 1% peptone, 0.5% ‘Lab-lemco’, 1% glucose and 0.5% sodium chloride supplemented with 5 μg/L haemin and 1 μg/L vitamin K (both obtained from Sigma Aldrich Ltd.) Yeast and filamentous fungal MIC were performed in MOPS buffered RPMI 1640 medium (MOPS buffer obtained from Sigma Aldrich Ltd., RPMI 1640 obtained from Invitrogen Ltd, Paisley, Scotland). The yeast inocula were in the range 7.5×10^2-4×10^3 CFU/mL and the filamentous fungi approximately 8×10^3-1×10^5 CFU/mL.
MICs were determined as described in Example 2.

[25] = test system: Escherichia coli - multi-drug resistant clinical isolate
[26] = test system: Haemophilus influenzae - β-lactamase positive clinical isolate
[27] = test system: Shigella sp - antibiotic-susceptible clinical isolate; test: MIC microbroth dilution (CLSI); type: cell-based
[28] = test system: Methicillin resistant Staphylococcus aureus (MRSA) strain ATCC 33591; settings: ATCC 33591
[29] = test system: Streptococcus pyogenes - Macrolide (M-type) resistance clinical isolate
[30] = test system: Streptococcus agalactiae - antibiotic-susceptible clinical isolate
[31] = test system: Klebsiella aerogenes NCTC11228 - antibiotic-susceptible type strain
[32] = test system: Cryptococcus neoformans - G.R. Micro collection

With `CCCCCCNC(=O)[C@H](CCCNC(=N)N)NC(=O)[C@H](Cc1c(C(C)(C)C)[nH]c2c(C(C)(C)C)cc(C(C)(C)C)cc12)NC(=O)[C@@H](N)CCCNC(=N)N` [Compound 8] the MIC [1] was 4 µg/mL (≈ 5.21 µM), the MIC [2] was 8 µg/mL (≈ 10.4 µM) and the MIC [3] was 4 µg/mL (≈ 5.21 µM). For the same compound, the MIC [4] was 4 µg/mL (≈ 5.21 µM), the MIC [5] was 4 µg/mL (≈ 5.21 µM) and the MIC [6] was 4 µg/mL (≈ 5.21 µM). It also gave an MIC [7] of 4 µg/mL (≈ 5.21 µM), an MIC [8] of 8 µg/mL (≈ 10.4 µM) and an MIC [9] of 4 µg/mL (≈ 5.21 µM). For the same compound, the MIC [10] was 8 µg/mL (≈ 10.4 µM), the MIC [11] was 4 µg/mL (≈ 5.21 µM) and the MIC [12] was 8 µg/mL (≈ 10.4 µM). The MIC [13] was 4 µg/mL (≈ 5.21 µM), the MIC [14] was 8 µg/mL (≈ 10.4 µM) and the MIC [15] was 4 µg/mL (≈ 5.21 µM). The MIC [16] was 8 µg/mL (≈ 10.4 µM), the MIC [17] was 4 µg/mL (≈ 5.21 µM) and the MIC [18] was 8 µg/mL (≈ 10.4 µM). It also gave an MIC [19] of 4 µg/mL (≈ 5.21 µM), an MIC [20] of 8 µg/mL (≈ 10.4 µM) and an MIC [21] of 4 µg/mL (≈ 5.21 µM). It also gave an MIC [22] of 4 µg/mL (≈ 5.21 µM), an MIC [23] of 8 µg/mL (≈ 10.4 µM) and an MIC [24] of 4 µg/mL (≈ 5.21 µM). It also gave an MIC [25] of 8 µg/mL (≈ 10.4 µM), an MIC [26] of 4 µg/mL (≈ 5.21 µM) and an MIC [27] of 4 µg/mL (≈ 5.21 µM). The “MRSA (MIC)” value [28] was 2 µg/mL, the MIC [29] was 8 µg/mL (≈ 10.4 µM) and the MIC [30] was 8 µg/mL (≈ 10.4 µM). For the same compound, the MIC [31] was 8 µg/mL (≈ 10.4 µM) and the MIC [32] was 2 µg/mL (≈ 2.6 µM).

— patent US20240277890A1, “ANTIMICROBIAL ARTICLES COMPRISING POLYURETHANE” (Amicoat AS, priority 2021, published 2024)
